In ChEMBL document CHEMBL1127582, “Novel 3 alpha-(diphenylmethoxy)tropane analogs: potent dopamine uptake inhibitors without cocaine-like behavioral profiles” (J Med Chem, 1994):

How the values were obtained:
[1] = target: Sodium-dependent dopamine transporter (Rattus norvegicus, UniProt P23977); assay: Compound was evaluated for its ability to displace [3H]WIN-35428 binding in rat caudate-putamen; format: tissue-based
Rattus norvegicus = organism: Rattus norvegicus; assay: Compound was evaluated for its ability to block the [3H]-Dopamine uptake in rat caudate-putamen; format: functional, organism-based

Sodium-dependent dopamine transporter, sequence (P23977 whole entry): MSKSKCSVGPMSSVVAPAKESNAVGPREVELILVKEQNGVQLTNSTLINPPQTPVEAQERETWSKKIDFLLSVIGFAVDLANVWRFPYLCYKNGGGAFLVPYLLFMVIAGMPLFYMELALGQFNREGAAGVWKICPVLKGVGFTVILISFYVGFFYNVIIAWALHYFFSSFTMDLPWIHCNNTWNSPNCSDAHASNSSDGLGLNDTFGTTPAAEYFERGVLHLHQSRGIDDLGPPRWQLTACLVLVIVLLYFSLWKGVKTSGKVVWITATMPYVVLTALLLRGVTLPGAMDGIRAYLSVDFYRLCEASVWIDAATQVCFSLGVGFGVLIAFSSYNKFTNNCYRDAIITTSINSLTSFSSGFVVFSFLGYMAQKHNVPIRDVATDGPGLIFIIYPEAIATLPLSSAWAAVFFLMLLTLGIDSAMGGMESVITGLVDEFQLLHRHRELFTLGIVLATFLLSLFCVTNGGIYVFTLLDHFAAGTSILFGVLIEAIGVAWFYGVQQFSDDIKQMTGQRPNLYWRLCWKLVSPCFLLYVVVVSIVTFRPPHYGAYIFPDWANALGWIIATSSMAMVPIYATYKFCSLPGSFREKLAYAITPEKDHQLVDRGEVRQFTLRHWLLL

Row | SMILES | Ki [1] [nM] | IC50 (Rattus norvegicus) [nM]
1 | COc1ccc(C(OC2CC3CCC(C2)N3C)c2ccc(OC)cc2)cc1 (centres undefined) | 2000 | 2880
2 | CN1C2CCC1CC(OC(c1ccccc1)c1ccc(Cl)cc1)C2 (centres undefined) | 854 | 3520
3 | CN1[C@@H]2CC[C@H]1C[C@@H](OC(c1ccccc1)c1ccc(Cl)cc1)C2 (some centres undefined) | 30 | 115
4 | COc1ccc(C(OC2CC3CCC(C2)N3C)c2ccccc2)cc1 (centres undefined) | 78.4 | 468
5 | Fc1ccc(C(OCCN2CCN(CCCc3ccccc3)CC2)c2ccc(F)cc2)cc1 [VANOXERINE] |  | 5
